Source: US20140350273A1, “PEDIATRIC USES OF CABAZITAXEL” (AVENTIS PHARMA S.A., priority 2012, published 2014)
Read-outs that look alike come from different tables or passages of the source.

System: human rhabdomyosarcoma RH-30
Format: in vivo
Conditions: for Average body weight change in % per mouse at nadir / Drug death (Day of death) / Regressions Complete / Regressions Partial / Tumor free survivors at day 120 / day of nadir / Biological interpretation / ΔT/ΔC in % (day 27): 18
Protocol: This efficacy may be quantified, for example, as changes in tumor volume for each treated (T) and control (C) group, which are calculated for each animal and each day by subtracting the tumor volume on the day of first treatment (staging day) from the tumor volume on the specified observation day. This allows calculating the tumor growth inhibition: ΔT/ΔC=(median delta T/median delta C)×100. Individual tumor volume changes from baseline are thereafter analyzed by a non-parametric two-way ANOVA-TYPE (with factors: group and repeated days) followed by a post-hoc contrasts analysis, with Bonferroni-Holm adjustment for multiplicity, comparing all treated groups to the control group. […] A probability less than 5% (p<0.05) was considered as significant.
Based on the National Cancer Institute (NCl) standards, a ΔT/ΔC≦40% is the minimal level required to declare activity.
The tumor doubling time (in days; Td) was estimated from the plot of the log linear growth of the control group tumors in exponential growth (100 to 1000 mm^3 range) [T. H. Corbett et al., Cancer, 40: 2660-2680 (1977); F. M. Schabel et al., Cancer Drug Development, Part B, Methods in Cancer Research, 17: 3-51, New York, Academic Press Inc. (1979)].
This efficacy may also be quantified by the number of tumor regressions observed after therapy. Individual mice reporting a tumor volume ≦50% of the Day 0 measurement for two consecutive measurements over a seven day period were considered partial responders (PR). Individual mice lacking palpable tumors (<4×4 mm^2 for two consecutive measurements over a seven day period) were classified as complete responders (CR); a CR that persisted until study completion was considered a tumor-free survivor (TFS).
The animals subjected to the experiment are subcutaneously grafted unilaterally with approximately 30 mg of a tumor fragment on day 0. The animals are implanted with a human tumor xenografted in immunocompromized mice. Several days post tumor implantation, mice are randomized according to their body weight to the different groups of treatments and controls. The animals are observed every day. […] The groups are then weighed once or twice a week until the end of the trial.
The tumors are measured 1 to 5 times a week, depending on the tumor doubling time, until the tumor reaches approximately 1,000 mm^3, or until the animal dies (if this occurs before the tumor reaches 1,000 mm^3). The animals are necropsied immediately after euthanasia or death.
The selected tumor model was a human rhabdomyosarcoma RH-30, xenografted in SCID mice [Douglass E C, et al. Cytogenet Cell Genet. 1987; 45(3-4):14855.].
Treatment solutions were prepared first by mixing 1 volume of ethanolic stock solution and 1 volume of polysorbate 80, then by adding 18 volumes of glucose 5% in water.

[1] = 3.5 mg/kg per injection (total 7.0) IV days 14
[2] = 3.5 mg/kg per injection (total 7.0) IV days 14, listed as DOCETAXEL
[3] = 3.5 mg/kg per injection (total 7.0) IV days 14, listed as docetaxel
[4] = 5.6 mg/kg per injection (total 11.2) IV days 14
[5] = 5.6 mg/kg per injection (total 11.2) IV days 14, listed as DOCETAXEL
[6] = 9.0 mg/kg per injection (total 18) IV days 14
[7] = 9.0 mg/kg per injection (total 18) IV days 14, listed as DOCETAXEL
[8] = 14.5 mg/kg per injection (total 29) IV days 14
[9] = 14.5 mg/kg per injection (total 29) IV days 14, listed as DOCETAXEL
[10] = 14.5 mg/kg per injection (total 29) IV days 14, listed as docetaxel

CC(=O)O[C@@]12CO[C@@H]1C[C@H](O)[C@@]1(C)C(=O)[C@H](O)C3=C(C)[C@@H](OC(=O)[C@H](O)[C@@H](NC(=O)OC(C)(C)C)c4ccccc4)C[C@@](O)([C@@H](OC(=O)c4ccccc4)[C@H]21)C3(C)C [Docetaxel, docetaxel]
Average body weight change in % per mouse at nadir [1]: −1.8% | Drug death (Day of death) [1]: 0/6 | Regressions Complete [1]: 0/6 | Regressions Partial [1]: 0/6 | Tumor free survivors at day 120 [1]: 0/6 | day of nadir [1]: (15) day | Biological interpretation [2]: Inactive | ΔT/ΔC in % (day 27) [2]: 77% | Biological interpretation [3]: inactive | ΔT/ΔC in % (day 27) [3]: > 40% | Tumor volume changes from baseline: Median (nMad) (3.5 mg/kg, day 19): 477 | Tumor volume changes from baseline: Median (nMad) (3.5 mg/kg, day 20): 475 | Tumor volume changes from baseline: Median (nMad) (3.5 mg/kg, day 22): 495.5 | Tumor volume changes from baseline: Median (nMad) (3.5 mg/kg, day 25): 621.5 | Tumor volume changes from baseline: Median (nMad) (3.5 mg/kg, day 27): 736 | Tumor volume changes from baseline: Median (nMad) (3.5 mg/kg, day 29): 905.5 | Average body weight change in % per mouse at nadir [4]: −12.1% | Drug death (Day of death) [4]: 0/6 | Regressions Complete [4]: 0/6 | Regressions Partial [4]: 4/6 | Tumor free survivors at day 120 [4]: 0/6 | day of nadir [4]: (25) day | Biological interpretation [5]: Highly | ΔT/ΔC in % (day 27) [5]: <0% | Biological interpretation (5.6 mg/kg per injection (total 11.2) IV days 14, listed as docetaxel): highly active | Tumor volume changes from baseline: Median (nMad) (5.6 mg/kg, day 18): 218 (84.5) | Tumor volume changes from baseline: Median (nMad) (5.6 mg/kg, day 19): 289 (57.1) | Tumor volume changes from baseline: Median (nMad) (5.6 mg/kg, day 20): 409.5 | Tumor volume changes from baseline: Median (nMad) (5.6 mg/kg, day 22): 405.5 | Tumor volume changes from baseline: Median (nMad) (5.6 mg/kg, day 25): −30.5 | Tumor volume changes from baseline: Median (nMad) (5.6 mg/kg, day 29): −47 (89.7) | Tumor volume changes from baseline: Median (nMad) (5.6 mg/kg, day 33): 67 (262.4) | Tumor volume changes from baseline: Median (nMad) (5.6 mg/kg, day 39): 454.5 | Tumor volume changes from baseline: Median (nMad) (5.6 mg/kg, day 41): 712 | Tumor volume changes from baseline: Median (nMad) (5.6 mg/kg, day 43): 1039.5 | Tumor volume changes from baseline: Median (nMad) (5.6 mg/kg, day 35): 129 | Average body weight change in % per mouse at nadir [6]: −11.2% | Drug death (Day of death) [6]: 0/6 | Regressions Complete [6]: 0/6 | Regressions Partial [6]: 2/6 | Tumor free survivors at day 120 [6]: 0/6 | day of nadir [6]: (25) day | Biological interpretation [7]: Highly | ΔT/ΔC in % (day 27) [7]: <0% | Biological interpretation (9.0 mg/kg per injection (total 18) IV days 14, listed as docetaxel): highly active | Tumor volume changes from baseline: Median (nMad) (9 mg/kg, day 18): 202 (98.6) | Tumor volume changes from baseline: Median (nMad) (9 mg/kg, day 19): 202 (71.9) | Tumor volume changes from baseline: Median (nMad) (9 mg/kg, day 20): 325 | Tumor volume changes from baseline: Median (nMad) (9 mg/kg, day 22): 290.5 | Tumor volume changes from baseline: Median (nMad) (9 mg/kg, day 25): 115.5 | Tumor volume changes from baseline: Median (nMad) (9 mg/kg, day 29): 119.5 | Tumor volume changes from baseline: Median (nMad) (9 mg/kg, day 33): 272 | Tumor volume changes from baseline: Median (nMad) (9 mg/kg, day 39): 676 | Tumor volume changes from baseline: Median (nMad) (9 mg/kg, day 41): 904.5 | Tumor volume changes from baseline: Median (nMad) (9 mg/kg, day 43): 909 | Average body weight change in % per mouse at nadir [8]: −17.6% | Drug death (Day of death) [8]: 0/6 | Regressions Complete [8]: 3/6 | Regressions Partial [8]: 5/6 | day of nadir [8]: (27) day | ΔT/ΔC in % (day 27) [8]: 1% | Biological interpretation [9]: Very | Tumor free survivors at day 120 [9]: 0/6 | Biological interpretation [10]: very active | Tumor free survivors at day 120 [10]: without TFS | Tumor volume changes from baseline: Median (nMad) (14.5 mg/kg, day 18): 166.5 | Tumor volume changes from baseline: Median (nMad) (14.5 mg/kg, day 19): 195 (83) | Tumor volume changes from baseline: Median (nMad) (14.5 mg/kg, day 25): 154.5 | Tumor volume changes from baseline: Median (nMad) (14.5 mg/kg, day 27): 13 (67.5) | Tumor volume changes from baseline: Median (nMad) (14.5 mg/kg, day 29): 87 (100.8) | Tumor volume changes from baseline: Median (nMad) (14.5 mg/kg, day 33): 17 (111.2) | Tumor volume changes from baseline: Median (nMad) (14.5 mg/kg, day 46): 18.5 | Tumor volume changes from baseline: Median (nMad) (14.5 mg/kg, day 50): 485 | Tumor volume changes from baseline: Median (nMad) (14.5 mg/kg, day 35): −80 (63.8) | Tumor volume changes from baseline: Median (nMad) (14.5 mg/kg, day 39): −112 | Tumor volume changes from baseline: Median (nMad) (14.5 mg/kg, day 41): −96 (78.6) | Tumor volume changes from baseline: Median (nMad) (14.5 mg/kg, day 43): −72.5
